US20070208073A1, “Compositions and methods for treating cardiovascular, cerebrovascular and other vascular disease patients” (priority 2006, published 2007)

Experiment: Clinical treatment of high risk vascular patients: cholesterol panel (LDL, HDL, triglycerides)
Format: in vivo
Conditions: for LDL lowering effects on adding adjunct: adjunct added to statin composition, Niacin 500 mg, ezetimibe 10 mg
Protocol: The protocol of the instant invention was developed for patients that are high risk for a life and/or limb threatening vascular event (MI, CVA, limb/part of limb loss, Aortic dissection/rupture, Renal infarction, etc.) such as DM type I and/or II, CAD, PVD, post MI, post CVA, Hypertriglyceridemia, Hypercholesterolemia, AAA, etc.
It is generally acknowledged that a goal for a DM/CAD patient is to have a LDL cholesterol level less than 70 mg/dL (National Cholesterol Education Program Interim Report Guidelines).
Generally, a patient should start with a low dose of one statin, the dose should then be titrated up to half a maximal dose (titrate means to start a patient at the lowest dose and increase the dose monthly based on having a patient that is less than 3× normal levels for the LFTs, the LDL cholesterol level is not to goal, and there is no positive change in signs, symptoms or studies to evaluate vascular function per disease state). At that point, the patient should be evaluated to see if the LDL cholesterol level is near the goal. If the patient is near the goal, adjuncts should be given to see if the LDL cholesterol level can be further lowered. If the patient is not near the LDL cholesterol goal after titration up to half a maximal dose, the dose of the initial statin should be reduced and a low dose second statin from the other group should be added to the regimen (i.e., if the initial statin is a hydrophilic statin, the second statin should be a lipophilic statin; and vice versa). The second statin level should be titrated up to a half maximal dose if upon taking the statin from the other group (i.e., the second statin), the LDL cholesterol level goal is still not attained. If one is near or at the LDL cholesterol level goal before or after titration of the second statin, the adjuncts can be added to further reduce the LDL cholesterol level.

SMILES | LDL lowering effects on adding adjunct | HDL up (niacin 500 mg a day with the composition of statins) | boost to the HDL levels (niacin 500 mg to 750 mg a day, adult, with two-statin composition)
O=C1[C@H](CC[C@H](O)c2ccc(F)cc2)[C@@H](c2ccc(O)cc2)N1c1ccc(F)cc1 [ezetimibe] | amplified | – | –
O=C(O)c1cccnc1 [niacin] | amplified | at least 10% | ≥ 10%
